ChEMBL document CHEMBL1909046, “DrugMatrix in vitro pharmacology data”

Columns and labels:
[1] = biological target: T1, Muscarinic acetylcholine receptor M4 (Homo sapiens, UniProt P08173); type: cell membranes, CHO-K1, Membrane; details: for Ki: read-out: Ki
T1 sequence (P08173 whole entry): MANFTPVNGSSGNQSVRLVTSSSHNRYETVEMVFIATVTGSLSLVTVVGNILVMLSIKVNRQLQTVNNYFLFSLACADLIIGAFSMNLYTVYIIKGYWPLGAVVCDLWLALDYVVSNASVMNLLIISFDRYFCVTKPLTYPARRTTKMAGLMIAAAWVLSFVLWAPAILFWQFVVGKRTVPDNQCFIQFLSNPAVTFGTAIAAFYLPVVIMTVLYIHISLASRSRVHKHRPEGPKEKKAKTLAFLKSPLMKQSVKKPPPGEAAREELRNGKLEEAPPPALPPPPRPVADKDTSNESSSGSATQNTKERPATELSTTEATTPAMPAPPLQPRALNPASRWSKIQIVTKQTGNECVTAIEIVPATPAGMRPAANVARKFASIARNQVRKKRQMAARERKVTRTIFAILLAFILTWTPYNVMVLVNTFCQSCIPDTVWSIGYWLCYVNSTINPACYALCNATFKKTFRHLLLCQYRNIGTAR

[2] = biological target: T2, Receptor-type tyrosine-protein phosphatase C (Homo sapiens, UniProt P08575); parameters: species or system Escherichia coli;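 also: inhibition of CD45 enzyme activity measured using DiFMUP as substrate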
T2 sequence (P08575 whole entry): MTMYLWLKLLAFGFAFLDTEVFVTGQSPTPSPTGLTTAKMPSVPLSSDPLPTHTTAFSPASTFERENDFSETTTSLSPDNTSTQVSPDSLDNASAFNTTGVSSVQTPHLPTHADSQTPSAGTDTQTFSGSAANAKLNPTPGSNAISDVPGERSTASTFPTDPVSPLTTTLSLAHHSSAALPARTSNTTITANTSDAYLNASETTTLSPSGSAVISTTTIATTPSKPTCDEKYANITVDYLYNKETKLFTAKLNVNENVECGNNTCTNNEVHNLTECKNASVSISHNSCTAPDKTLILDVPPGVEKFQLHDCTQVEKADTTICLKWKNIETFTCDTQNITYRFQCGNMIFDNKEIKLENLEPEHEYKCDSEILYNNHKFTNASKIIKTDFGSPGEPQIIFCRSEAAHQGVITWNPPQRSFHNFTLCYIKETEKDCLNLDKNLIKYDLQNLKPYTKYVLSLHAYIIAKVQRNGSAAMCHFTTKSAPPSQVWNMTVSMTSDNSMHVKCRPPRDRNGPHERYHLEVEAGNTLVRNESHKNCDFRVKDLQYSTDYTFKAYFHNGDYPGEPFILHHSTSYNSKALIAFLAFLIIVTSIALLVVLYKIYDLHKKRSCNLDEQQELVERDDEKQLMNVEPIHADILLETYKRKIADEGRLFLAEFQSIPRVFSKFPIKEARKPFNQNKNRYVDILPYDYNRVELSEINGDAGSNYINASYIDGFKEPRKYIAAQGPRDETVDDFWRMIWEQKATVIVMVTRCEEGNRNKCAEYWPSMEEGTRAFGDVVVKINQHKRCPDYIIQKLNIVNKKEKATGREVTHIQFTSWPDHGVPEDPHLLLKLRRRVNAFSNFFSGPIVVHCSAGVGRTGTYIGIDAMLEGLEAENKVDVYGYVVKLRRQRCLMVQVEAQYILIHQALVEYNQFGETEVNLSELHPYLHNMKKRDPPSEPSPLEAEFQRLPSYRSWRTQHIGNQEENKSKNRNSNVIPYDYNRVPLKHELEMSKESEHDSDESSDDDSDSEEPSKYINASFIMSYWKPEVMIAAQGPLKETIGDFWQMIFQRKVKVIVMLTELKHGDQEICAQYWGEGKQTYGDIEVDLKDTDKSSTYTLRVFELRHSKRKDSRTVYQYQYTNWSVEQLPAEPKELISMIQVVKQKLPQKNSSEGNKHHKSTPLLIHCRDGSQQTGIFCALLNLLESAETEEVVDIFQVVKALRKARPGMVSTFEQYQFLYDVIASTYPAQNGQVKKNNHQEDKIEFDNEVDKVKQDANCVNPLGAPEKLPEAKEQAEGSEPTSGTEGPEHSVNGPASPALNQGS

[3] = biological target: T3, Alpha-1D adrenergic receptor (Homo sapiens, UniProt P25100); type: cell membranes, HEK293, Membrane; details: for Ki: read-out: Ki
T3 sequence (P25100 whole entry): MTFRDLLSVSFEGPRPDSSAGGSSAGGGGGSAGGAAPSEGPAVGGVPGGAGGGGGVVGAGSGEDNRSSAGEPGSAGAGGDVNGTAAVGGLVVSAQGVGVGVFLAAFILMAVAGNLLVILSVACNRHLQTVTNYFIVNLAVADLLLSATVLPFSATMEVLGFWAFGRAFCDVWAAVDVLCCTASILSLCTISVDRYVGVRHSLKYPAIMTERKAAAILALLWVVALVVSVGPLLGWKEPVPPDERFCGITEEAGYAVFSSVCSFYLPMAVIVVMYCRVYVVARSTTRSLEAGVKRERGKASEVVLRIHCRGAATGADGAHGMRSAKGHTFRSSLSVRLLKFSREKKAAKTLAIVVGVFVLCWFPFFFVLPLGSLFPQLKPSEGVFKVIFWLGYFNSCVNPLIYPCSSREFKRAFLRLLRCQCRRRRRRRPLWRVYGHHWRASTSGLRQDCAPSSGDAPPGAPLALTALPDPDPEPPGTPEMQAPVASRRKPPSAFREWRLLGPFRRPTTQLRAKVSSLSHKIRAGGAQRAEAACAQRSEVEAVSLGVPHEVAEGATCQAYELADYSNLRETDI

[4] = biological target: T4, Vasoactive intestinal polypeptide receptor 1 (Homo sapiens, UniProt P32241); type: cell membranes, Membrane; details: ht-29
T4 sequence (P32241 whole entry): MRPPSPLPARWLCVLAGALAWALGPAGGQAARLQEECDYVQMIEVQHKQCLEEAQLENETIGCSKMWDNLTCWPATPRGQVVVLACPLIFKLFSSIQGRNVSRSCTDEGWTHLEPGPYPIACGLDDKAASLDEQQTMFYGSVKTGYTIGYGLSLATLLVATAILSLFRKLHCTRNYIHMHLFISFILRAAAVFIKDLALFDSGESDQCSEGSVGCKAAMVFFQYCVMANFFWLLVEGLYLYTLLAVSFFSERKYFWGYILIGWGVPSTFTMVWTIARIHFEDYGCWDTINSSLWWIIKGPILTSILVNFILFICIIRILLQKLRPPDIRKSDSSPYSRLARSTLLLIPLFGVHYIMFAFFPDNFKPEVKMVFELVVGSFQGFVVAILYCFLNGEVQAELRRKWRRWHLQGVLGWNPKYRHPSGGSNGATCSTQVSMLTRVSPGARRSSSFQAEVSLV
Also: in other assays of this panel Not Active means under 50% inhibition at 10 µM.

Row | SMILES | IC50 ([1]; cho-k1) | IC50 [2] | IC50 ([3]; hek293) | IC50 [4] | IC50 ([1]; read-out: IC50) | Ki [1] | IC50 ([3]; read-out: IC50) | Ki [3]
1 | CCOC(=O)[C@H](CCc1ccccc1)N[C@@H](C)C(=O)N1[C@H](C(=O)O)C[C@@H]2CCC[C@@H]21 | Not Active | Not Active | Not Active | Not Active |  |  |  | 
2 | CC(C)(C)NC(=O)[C@@H]1CN(Cc2cccnc2)CCN1C[C@@H](O)C[C@@H](Cc1ccccc1)C(=O)N[C@H]1c2ccccc2C[C@H]1O.O | Not Active | Not Active | Not Active | Not Active |  |  |  | 
3 | CC1(C)[C@H]2CC[C@]1(C)C(=O)C2 [(-)-CAMPHOR] | Not Active | Not Active | Not Active | Not Active |  |  |  | 
4 | CC(C)(C)NCC(O)c1ccc(O)c(CO)c1 (configuration not stated) [ALBUTEROL] | Not Active | Not Active | Not Active | Not Active |  |  |  | 
5 | COc1ccc(CCN2CCC(Nc3nc4ccccc4n3Cc3ccc(F)cc3)CC2)cc1 [ASTEMIZOLE] |  | Not Active |  | Not Active | 1860 nM | 259 nM | 769 nM | 378 nM
6 | CN(C)CCCN1c2ccccc2CCc2ccc(Cl)cc21 [CLOMIPRAMINE] |  | Not Active |  | Not Active | 91 nM | 13 nM | 180 nM | 88 nM
7 | Clc1ccccc1C(c1ccccc1)(c1ccccc1)n1ccnc1 [CLOTRIMAZOLE] |  | Not Active |  | Not Active |  | 1640 nM | 15000 nM | 7380 nM
8 | O=C(CCCN1CCC(O)(c2ccc(Cl)cc2)CC1)c1ccc(F)cc1 [HALOPERIDOL] | Not Active | Not Active |  | Not Active |  |  |  | 
9 | Oc1c(I)cc(I)c2cccnc12 [IODOQUINOL] | Not Active | Not Active | Not Active | Not Active |  |  |  | 
10 | NNC(=O)c1ccncc1 [ISONIAZID] | Not Active | Not Active | Not Active | Not Active |  |  |  | 
11 | CC1=C(/C=C/C(C)=C/C=C/C(C)=C\C(=O)O)C(C)(C)CCC1 [ISOTRETINOIN] | Not Active | Not Active | Not Active | Not Active |  |  |  | 
12 | CO[C@@H]1[C@@H](O[C@@H]2O[C@H](C)[C@@H](O[C@H]3C[C@@](C)(O)[C@@H](OC(=O)CC(C)C)[C@H](C)O3)[C@H](N(C)C)[C@H]2O)[C@@H](CC=O)C[C@@H](C)[C@@H](O)/C=C/C=C/C[C@@H](C)OC(=O)C[C@H]1O [KITASAMYCIN] | Not Active | Not Active | Not Active | Not Active |  |  |  | 
13 | CC(CCc1ccccc1)NCC(O)c1ccc(O)c(C(N)=O)c1 (configuration not stated) [LABETALOL] | Not Active | Not Active |  | Not Active |  |  | 521 nM | 256 nM
14 | Nc1nnc(-c2cccc(Cl)c2Cl)c(N)n1 [LAMOTRIGINE] | Not Active | Not Active | Not Active | Not Active |  |  |  | 
15 | CCC[C@@H]1C[C@@H](C(=O)N[C@@H]([C@H]2O[C@H](SC)[C@H](O)[C@@H](O)[C@H]2O)[C@@H](C)O)N(C)C1 [LINCOMYCIN] | Not Active | Not Active | Not Active | Not Active |  |  |  | 
16 | NCCCC[C@H](N[C@@H](CCc1ccccc1)C(=O)O)C(=O)N1CCC[C@H]1C(=O)O [LISINOPRIL ANHYDROUS] | Not Active | Not Active | Not Active | Not Active |  |  |  | 
17 | COS(C)(=O)=O [METHANESULFONIC ACID METHYL ESTER] | Not Active | Not Active | Not Active | Not Active |  |  |  | 
18 | COC(=O)c1ccc(O)cc1 [METHYLPARABEN] | Not Active | Not Active | Not Active | Not Active |  |  |  | 
19 | C[C@](N)(Cc1ccc(O)cc1)C(=O)O [METYROSINE] | Not Active | Not Active | Not Active | Not Active |  |  |  | 
20 | CN1CCN2c3ccccc3Cc3ccccc3C2C1 (configuration not stated) [MIANSERIN] |  | Not Active |  | Not Active | 2070 nM | 288 nM | 83 nM | 41 nM
21 | Clc1ccc(C(c2ccccc2Cl)C(Cl)Cl)cc1 (configuration not stated) [MITOTANE] | Not Active | Not Active | Not Active | Not Active |  |  |  | 
22 | O=C1c2c(O)ccc(O)c2C(=O)c2c(NCCNCCO)ccc(NCCNCCO)c21 [MITOXANTRONE] |  | Not Active | Not Active | Not Active | 644 nM | 89.8 nM |  | 
23 | CC(C)(O)c1ccccc1CC[C@@H](SCC1(CC(=O)O)CC1)c1cccc(/C=C/c2ccc3ccc(Cl)cc3n2)c1 [MONTELUKAST] | Not Active | Not Active | Not Active | Not Active |  |  |  | 
24 | CSc1ccc2c(c1)N(CCC1CCCCN1C)c1ccccc1S2 (configuration not stated) [THIORIDAZINE] |  | Not Active |  | Not Active |  |  | 5.89 nM | 2.9 nM
25 | COC(=O)[C@@H]1[C@H]2C[C@H]3c4[nH]c5ccccc5c4CCN3C[C@@H]2CC[C@@H]1O [YOHIMBINE] | Not Active | Not Active |  | Not Active |  |  |  | 
